Measured values from PubChem BioAssay (NCI).
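All cell lines were grown in 96-well plates and treated with compound for 48 hours. Definition used: TGI = concentration required for complete inhibition of growth.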

Legend:
Assay in all cases: DTP human tumour cell line panel, 48 h
EKVX NSCLC = system: EKVX NSCLC
DU-145 prostate = system: DU-145 prostate
MOLT-4 leukemia = system: MOLT-4 leukemia
SF-539 CNS = system: SF-539 CNS
MDA-MB-435 = system: MDA-MB-435
SK-OV-3 ovarian = system: SK-OV-3 ovarian
SK-MEL-28 melanoma = system: SK-MEL-28 melanoma
MDA-N = system: MDA-N
MDA-MB-231 breast = system: MDA-MB-231 breast
NCI-H522 lung = system: NCI-H522 lung
HCT-15 colon = system: HCT-15 colon
NCI-H460 lung = system: NCI-H460 lung
T-47D breast = system: T-47D breast
SF-268 CNS = system: SF-268 CNS
NCI/ADR-RES ovarian = system: NCI/ADR-RES ovarian
SW-620 colon = system: SW-620 colon
OVCAR-3 ovarian = system: OVCAR-3 ovarian
HCC-2998 colon = system: HCC-2998 colon
NCI-H23 lung = system: NCI-H23 lung
HCT-116 colon = system: HCT-116 colon

Measured: TGI

CCc1cc2c(cc1CCCC(=O)O)CC1(Cc3ccc(C(=O)O)cc3C1)C2 (stereo not given)
> 100 µM: all assays above
